# pIC50: −log10 of the molar value.
# Target: STAT6 activation
# Assay: STAT6 activation inhibition test (IL-4-induced alkaline phosphatase STAT6 reporter gene assay)
# Format: cell-based, human
# Settings: concentration giving 50% suppression of alkaline phosphatase activity induced by IL-4 (1 ng/mL), 16 hours, 293 cells stably expressing STAT6 gene and STAT6 reporter gene
# Protocol: The inhibitory activity on STAT6 activation of the compound according to present invention was evaluated according to the following test.
# 1) Construction of the STAT6 Reporter Gene
# The oligonucleotide of SEQ ID: 1 resuting from three STAT6 binding regions of the human immunoglobulin germline ε gene promoter linked togeter, and the complementary strand thereof were mixed, and after thermal denaturation and annealing, the 5′ and the 3′ ends were respectively cut with the restriction enzymes Kpn I (TaKaRa Shuzo Code No. 1068A) and Xba I (TaKaRa ShuzoCode No. 1093A), and the resulting fragment was cloned into the Kpn I/Xba I site of the pUG-BGH-PLAP vector (described in Molecular Pharmacology, 49: 860–873 1996). In addition, the TK promoter region of the herpesvirus for inducing general transcription factors was cloned into the Xba I/Hind III (TaKaRa ShuzoCode No. 1060A) site of the pUG-BGH-PLAP vector. Then, to collect a stable expression cell strain, the neomycin resistance gene, that is a PGK-neo expression cassette, was incorporated into the Sal I (TaKaRa Shuzo, Code No. 1080A) site of this vector. Cloning of the TK promoter and the PGK-neo expression cassette was carried out according to Molecular Pharmacology, 49: 860–873 1996.
# 2) Construction of the STAT6 Expression Vector
# Using the oligonucleotide of SEQ ID: 2 containing the initiation codon of the STAT6 gene and the oligonucleotide of SEQ ID: 3 containing the stop codon, Total RNA was prepared from human peripheral blood cells with the RNeasy Mini kit (OIAGEN, Code No. 74104). Thereafter, a reverse transcription reaction was carried out with the Takara RNA LA PCR kit (TaKaRa Shuzo, Code No. RR012A) to prepare cDNA, and using the primers of SEQ ID: 2 and 3, a PCR reaction was carried out, to amplify the STAT6 gene.
# PCR product was digested with EcoR I (TaKaRa Shuzo, Code No. 1040A) and Xho I (TaKaRa Shuzo, 1094A), thereafter, the digested fragment was isolated on an agarose gel. The isolated fragment was incorporated into the vector fragment derived from the EcoR I/Xho I digestion of the pcDNA3.1 (+) (invtrogen, Code No. U790-20) vector.
# 3) Transformation and Preparation of a Stable Expression Cell Strain
# In a Falcon 6-well plate for tissue culture (Becton Dickinson, Code No. 35-3046), 3.0×10^5 of 293 cells derived from human embryo kidney (American Type Culture Collection) were distributed and cultured overnight. The STAT6 reporter gene (1.5 μg), the STAT6 gene (1.5 μg) that were prepared and lipofectamine (GIBCO BRL, Code No. 18324-012) (20 μL) were mixed in OPTI-MEM culture medium (GIBCO BRL, Code No. 31985-070) (0.3 mL), and allowed to stand at room temperature for 20 minutes. Thereafter, the OPTI-MEM culture medium (1.2 mL) was further added, OPTI-MEM culture medium not containing fetal calf serum was added to washed cells, which were cultured for 2 hours. A culture medium (1.5 mL) containing fetal calf serum was added, and the cells were cultured for 19 more hours. The culture was continued by exchanging the culture medium and adding Geneticin (SIGMA, Code No. G-5013) so as to obtain 1 mg/mL, and cells with drug tolerance were selected. The selected drug tolerant cells were suspended in a culture medium containing 1 mg/mL of Geneticin, and distributed in a 96-well microplate (Becton Dickinson, Code No. 35-3072) so as to obtain 0.5 cells/well to carrry out cloning, and the clones expressing alkaline phosphatase in response to IL-4 were collected.
# 4) STAT6 Activation Inhibition Test
# Cells stably expressing the STAT6 gene and the STAT6 reporter gene, and expressing alkaline phosphatase in response to IL-4 were distributed in a 96-well microplate (Becton Dickinson, Code No. 35-3072) so as to obtain 5000 cells/180 μL/well, and cultured overnight. […]
SMILES,pIC50,"pIC50 (Homo sapiens, HEK293)"
"CC1CCc2c(S(=O)(=O)N(C)CCc3ccc(F)cc3)csc2/C1=N\O (centres unmarked) [Example 31, (7Z)-7-Hydroxyimino-6-methyl-4,5,6,7-tetrahydrobenzo[b]-thiophene-3-sulfonic acid[(2-(4-fluorophenyl)ethyl)]-methyl-amide]",8.37,
"CN(CC(O)c1ccc(F)cc1)S(=O)(=O)c1csc2c1CCC/C2=N\O (centres unmarked) [Example 2, (7E)-7-Hydroxyimino-4,5,6,7-tetrahydro-benzo[b]thiophene-3-sulfonic acid[2-(4-fluorophenyl)-2-hydroxyethyl]-methyl-amide]",9.66,
C/C(=N/O)c1cc(S(=O)(=O)N(C)CC(O)c2ccc(F)cc2)cs1 (centres unmarked) [Example 44],9.20,
"CCOc1ccc(NC(=O)O/N=C2/CCCc3c(S(=O)(=O)N(C)CC(O)c4ccc(F)cc4)csc32)cc1 (centres unmarked) [Example 73, (7Z)-7-({[(4-Ethoxyanilino)carbonyl]oxo}imino)-3-{[[2-(4-fluoro-phenyl)-2-hydroxyethyl](methyl)amino]sulfonyl}-4,5,6,7-tetrahydro-1-benzothiophene]",9.05,
"CN(CCc1cccnc1)S(=O)(=O)c1csc2c1CCC/C2=N/O [Example 7, (7Z)-7-Hydroxyimino-4,5,6,7-tetrahydro-benzo[b]thiophene-3-sulfonic acid methyl-(2-pyridine-3-yl-ethyl)-amide]",,8.32
"CN(CCc1ccc(F)cc1)S(=O)(=O)c1csc2c1CCC(O)/C2=N/O (centres unmarked) [Example 33, (7Z)-6-Hydroxy-7-hydroxyimino-4,5,6,7-tetrahydrobenzo[b]-thiophene-3-sulfonic acid[(2-(4-fluorophenyl)ethyl)]-methyl-amide]",7.96,
"CN(CC(O)c1ccc(F)cc1)S(=O)(=O)c1csc2c1CCC/C2=N/O (centres unmarked) [Example 1, (7Z)-7-Hydroxyimino-4,5,6,7-tetrahydro-benzo[b]thiophene-3-sulfonic acid[2-(4-fluorophenyl)-2-hydroxyethyl]-methyl-amide]",8.95,
"C/C(=N/O)c1cc(S(=O)(=O)N(C)CCc2ccc(F)cc2)c(N)s1 [Example 60, 2-Amino-5-[(1Z)-hydroxyimino-ethyl]-thiophene-3-sulfonic acid [2-(4-fluorophenyl)-ethyl]-methyl-amide]",8.80,
"CN(CC(O)c1ccc(F)cc1F)S(=O)(=O)c1csc2c1CCC/C2=N/O (centres unmarked) [Example 17, (7Z)-7-Hydroxyimino-4,5,6,7-tetrahydro-benzo[b]thiophene-3-sulfonic acid[2-(2,4-difluorophenyl)-2-hydroxyethyl]-methyl-amide]",7.81,
"CN(CCc1ccc(F)cc1)C(=O)c1csc2c1CCC/C2=N/O [Example 124, (7Z)-7-Hydroxyimino-4,5,6,7-tetrahydrobenzo[b]thiophene-3-carboxylic acid[2-(4-fluorophenyl)ethyl]-methyl-amide]",9.82,
"C/C(=N\O)c1cc(S(=O)(=O)N(C)CCc2ccc(F)cc2)c(N)s1 [Example 61, 2-Amino-5-[(1E)-hydroxyimino-ethyl]-thiophene-3-sulfonic acid [2-(4-fluorophenyl)-ethyl]-methyl-amide]",7.18,
"CN(CC(O)c1ccc(F)cc1)S(=O)(=O)c1c(N)sc2c1CCC/C2=N\O (centres unmarked) [Example 27, (7E)-2-Amino-7-hydroxyimino-4,5,6,7-tetrahydro-benzo[b]-thiophene-3-sulfonic acid [2-(4-fluorophenyl)-2-hydroxyethyl]-methyl-amide]",,7.96
"CN(CC(O)c1ccc(F)cc1)S(=O)(=O)c1csc2c1CCC/C2=N/OC(N)=O (centres unmarked) [Example 87, (7Z)-7-{[(Aminocarbonyl)oxy]imino}-3-{[[2-(4-fluorophenyl)-2-hydroxyethyl](methyl)amino]sulfonyl}-4,5,6,7-tetrahydro-1-benzothiophene]",,9.30
C/C(=N/O)c1ccc(S(=O)(=O)N(C)CCc2ccc(F)cc2)s1 [Example 37],7.52,
